Test results published in patent publication US20060111418A1, “Blood-brain barrier disruption inhibitor” (Mitsubishi Pharma Corporation, priority 2003, published 2006).

Key:
[1] = tested on: blood-brain barrier coculture model (brain capillary endothelial cells and astrocytes); experiment: Blood-brain barrier coculture model, permeability measured as TEER; assay type: cell-based, bovine brain capillary endothelial cells; rat astrocytes; conditions: TNF-α (50 ng/ml) and/or IL-1β (5 ng/ml) added to the BBB coculture model; n=3; FIG. 2
Protocol: A blood-brain barrier coculture model was prepared by a method that had previously been reported (Eur. J. Pharm. Sci., 12: 215-222, 2001). Specifically, brain microcapillary endothelial cells and rat astrocytes were isolated, and the two types of cells were cultured on both sides of a Transwell™ filter, so as to prepare a coculture model. The preparation method of such a coculture model will be described below.
A brain capillary was isolated from a bovine brain. The meninx and white matter were eliminated therefrom, and the gray matter was recovered in DMEM (DMEM+S) to which 10% fetal calf serum had been added. Vascular fragments were prepared by homogenizing by hand, using a Wheaton homogenizer, and they were then captured on a 150-μm nylon mesh. The blood vessel was digested with collagenase, trypsin and DNAseI, in DMEM+S at 37° C. for 1 hour. […]
The brain capillary was inoculated into a plastic flask used for tissue culture, which had been covered with type IV collagen and fibronectin, and was allowed to adhere to a medium for 4 hours. Thereafter, the medium was exchanged with a growth medium (DMEM+S to which a 50% (v/v) astrocyte-conditioned medium and 125 μg/ml heparin had been added), and growing cells (large quantities of brain capillary endothelial cells and only small quantities of peritheliums) were cultured at 37° C. in 10% CO2. […]

[2] = reported in Kawai et al. 1997; Wu et al. 2000; cited from earlier work
[3] = tested on: experimental autoimmune encephalomyelitis (EAE) model rats; experiment: EAE model rats: cytokines in spinal fluid, protein ratio and blood-brain barrier permeability; assay type: in vivo, rat; conditions: 3 mg/kg/day i.p., at 10, 11 and 12 days after sensitization, n=3, FIG. 7
Protocol: (§1) Experimental autoimmune encephalomyelitis (EAE) model rats were prepared by known methods (Int. J. Immunopharmacol, 7: 497-503, 1995). First, an encephalitogenic emulsion consisting of equivalent amounts of Guinea pig spinal cord, sterile phosphate buffered saline (PBS), and Freund's incomplete adjuvant was prepared. Thereafter, 10 mg/ml Mycobacterium tuberculosis H37Ra (Difco Laboratories) was added to the emulsion. Rats (inbred male Lewis rats; body weight: 200 to 250 g) were inoculated with 0.1 ml each of the thus obtained emulsion by subcutaneous administration of the emulsion to both plantae of the hind legs thereof, so as to prepare EAE model rats.
With regard to the control rats and EAE model rats, the concentrations of TNF-α and IL-1β in blood plasma and in spinal fluid, the protein ratio in spinal fluid/blood plasma, and blood-brain barrier permeability (the ratio of the concentration (Kp, app) of sodium fluorescein in brain/blood plasma, 20 minutes after administration by intravenous injection) were measured, in both a case where edaravone was administered or a case where edaravone was not administered. The terms “Kp” and “app” indicate apparent distribution ratios, which are values obtained by dividing the concentration of fluorescein in brain tissues by the concentration thereof in blood plasma after intravenous injection of the fluorescein (wherein the values are multiplied by 100, so as to be expressed on a percentage basis). It is to be noted that the specific gravity of brain tissues is expressed as 1 (because the unit of concentration is expressed as/g tissue weight). The amount of edaravone administered was set at 3 mg/kg/day (intraperitoneal administration). From 10 days after sensitization (administration of an antigen solution), edaravone was administered at intervals of 24 hours for 3 days (that is, 3 administrations at 10 days, 11 days, and 12 days after sensitization).

[4] = tested on: experimental autoimmune encephalomyelitis (EAE) model rats; experiment: EAE model rats: limb neuroparalysis score (Paul's clinical score); assay type: in vivo, rat; conditions: edaravone 3 mg/kg/day i.p., dexamethasone 1 mg/kg/day i.p., n=3, FIG. 8
Protocol: as §1
Moreover, limb neuroparalysis scores were evaluated in a group of EAE model rats to which no agents were administered (control), a group of EAE model rats to which dexamethasone was administered (1 mg/kg/day, intraperitoneal administration), and a group of EAE model rats to which edaravone was administered (3 mg/kg/day, intraperitoneal administration). The limb neuroparalysis scores were evaluated in accordance with the following standards.

| Compound | TEER (transcellular endothelial electrical resistance) [1] | reactivity to active oxygen [2] | increased concentration of IL-1β in spinal fluid [3] | increased concentration of TNF-α in spinal fluid [3] | increased protein ratio in spinal fluid/blood plasma [3] | limb neuroparalysis scores [4] |
| --- | --- | --- | --- | --- | --- | --- |
| TNF-α | significantly reduced |  |  |  |  |  |
| CC1=NN(c2ccccc2)C(=O)C1 [edaravone, 3-methyl-1-phenyl-2-pyrazolin-5-one] |  | high reactivity | inhibited | inhibited | inhibited | improved |
| IL-1β: interleukin-1 beta, inflammatory cytokine | significantly reduced |  |  |  |  |  |
